# Data taken from US8680290B2, “Isoxazoline derivatives and their use as herbicides” (Syngenta Limited, priority 2004, dated 2014).
# Test system: Monocotyledonous and dicotyledonous test plants
# Assay: Example B1 herbicidal action, application pre-emergence (Table B1b)
# Format: in vivo
# Conditions: 250 g/ha, evaluated after 4 weeks
# Experimental: Monocotyledonous and dicotyledonous test plants were sown in seed trays in standard soil. Immediately after sowing (pre-emergence) or after 8 to 9 days cultivation (post-emergence), the test compounds were applied by spraying in the form of an aqueous solution derived from the formulation of the technical active ingredient in 0.6 ml acetone and 45 ml formulation solution containing 10.6% Emulsogen EL (CAS RN 61791-12-6), 42.2% N-methylpyrrolidone, 42.2% dipropylene glycol monomethyl ether (CAS RN 34590-94-8) and 0.2% X-77 (CAS RN 11097-66-8). The test plants were then grown in a greenhouse under optimum conditions. After a test duration of 3 weeks (post-emergence) or 4 weeks (pre-emergence), the test was evaluated (10=total damage to plant, 0=no damage to plant).
SMILES,"herbicidal action (damage rating 0-10), Amaranthus","herbicidal action (damage rating 0-10), Digitaria","herbicidal action (damage rating 0-10), Panicum","herbicidal action (damage rating 0-10), Setaria","herbicidal action (damage rating 0-10), Sida"
CC1(C)CC(S(=O)(=O)C(Br)c2ccc(F)cc2F)=NO1 (stereo not shown) [1.150],6,10,10,9,0
C=C(OC(C)=O)C(Cl)(c1c(F)cccc1F)S(=O)(=O)C1=NOC(C)(C)C1 (stereo not shown) [Compound No. 1.58],5,8,9,7,3
"CC(=O)O/C(C)=C(/c1c(F)cccc1F)S(=O)(=O)C1=NOC(C)(C)C1 [Compound No. 1.98, acetic acid 2-(2,6-difluoro-phenyl)-2-(5,5-dimethyl-4,5-dihydroisoxazole-3-sulfonyl)-1-methyl-vinyl ester]",7,8,9,9,4
Cn1nc(C(F)(F)F)c(C(C(=O)C(F)F)S(=O)(=O)C2=NOC(C)(C)C2)c1OCC(F)(F)F (stereo not shown) [2.06],7,8,8,7,3
CC1(C)CC(S(=O)(=O)C(Br)c2ccccc2)=NO1 (racemic) [1.81],9,6,8,5,0
Cc1cc(C(F)(F)S(=O)(=O)C2=NOC(C)(C)C2)no1 [4.03],9,10,,10,7
"COc1cc(C(Cl)S(=O)(=O)C2=NOC(C)(C)C2)on1 (stereo not shown) [Compound No. 5.01, 5-[chloro-(5,5-dimethyl-4,5-dihydroisoxazole-3-sulfonyl)-methyl]-3-methoxy-isoxazole]",0,8,,8,2
COc1ccccc1C(Br)S(=O)(=O)C1=NOC(C)(C)C1 (stereo not shown) [1.101],9,8,8,8,0
Cc1noc(C)c1C(Cl)S(=O)(=O)C1=NOC(C)(C)C1 (stereo not shown) [Compound No. 3.03],7,9,10,10,0
"CC1(C)CC([S+]([O-])C(Cl)c2c(F)cccc2Cl)=NO1 (single isomer, unassigned) [1.33]",0,8,10,7,0
"Cc1nsc(C#N)c1C(F)S(=O)(=O)C1=NOC(C)(C)C1 (stereo not shown) [Compound No. 3.01, 4-[(5,5-dimethyl-4,5-dihydroisoxazole-3-sulfonyl)-fluoromethyl]-3-methyl-isothiazole-5-carbonitrile]",7,8,10,7,0
CC1(C)CC(S(=O)(=O)C(Cn2cncn2)c2c(F)cccc2F)=NO1 (racemic) [Compound No. 1.90],4,4,0,0,5
CC(=O)OC(C)=C(c1c(C(F)(F)F)nn(C)c1OCC(F)(F)F)S(=O)(=O)C1=NOC(C)(C)C1 [2.32],7,4,7,4,0
CC1(C)CC(S(=O)(=O)C(Cn2ccnc2)c2c(F)cccc2F)=NO1 (racemic) [Compound No. 1.87],3,7,5,7,0
Cc1nn(C)c(OCC(F)(F)F)c1C(F)S(=O)(=O)C1=NOC(C)(C)C1 (stereo not shown) [Compound No. 2.24],10,10,,10,5
CC1(C)CC(S(=O)(=O)C(C(=O)C(F)F)c2c(F)cccc2F)=NO1 (stereo not shown) [Compound No. 1.57],9,8,10,8,6
COc1cc(OC)cc(C(Br)S(=O)(=O)C2=NOC(C)(C)C2)c1 (racemic) [1.84],10,9,10,9,0
CC1(C)CC(S(=O)(=O)C(F)(Cl)c2ccccc2F)=NO1 (racemic) [1.73],10,10,10,10,8
"Cc1nsc(C#N)c1C(F)(F)S(=O)(=O)C1=NOC(C)(C)C1 [Compound No. 3.02, 4-[(5,5-dimethyl-4,5-dihydroisoxazole-3-sulfonyl)-difluoro-methyl]-3-methyl-isothiazole-5-carbonitrile]",7,10,10,10,0
Cc1ccc(F)c(C(Cl)S(=O)(=O)C2=NOC(C)(C)C2)c1F (stereo not shown) [1.145],10,10,10,10,7
CC1(C)CC(S(=O)(=O)C(Br)c2ccccc2OC(F)F)=NO1 (racemic) [1.78],10,10,10,10,2
CC1(C)CC(S(=O)(=O)C(Br)c2cc(F)ccc2F)=NO1 (stereo not shown) [1.135],7,10,10,9,0
CC1(C)CC(S(=O)(=O)C(Br)c2cc(F)cc(F)c2)=NO1 (stereo not shown) [1.134],5,10,10,9,0
CC1(C)CC([S+]([O-])C(c2c(F)cccc2F)C(F)(F)F)=NO1 (stereo not shown) [1.139],0,8,0,7,0
Cc1noc(C)c1C(Cl)(Cl)S(=O)(=O)C1=NOC(C)(C)C1 [Compound No. 3.04],3,9,10,9,0
CC1(C)CC(S(=O)(=O)C(Br)c2cc(F)cc3c2OCOC3)=NO1 (stereo not shown) [1.103],3,9,9,5,0
"Cn1nc(C(F)(F)F)c(C([S+]([O-])C2=NOC(C)(C)C2)C(F)(F)F)c1OCC(F)(F)F (stereo not shown) [Compound No. 2.35, 5,5-dimethyl-3-{2,2,2-trifluoro-1-[1-methyl-5-(2,2,2-trifluoro-ethoxy)-3-trifluoromethyl-1H-pyrazol-4-yl]-ethanesulfinyl}-4,5-dihydro-isoxazole]",10,10,9,5,0
CC1(C)CC(S(=O)(=O)C(Cl)c2c(F)cccc2C(F)(F)F)=NO1 (racemic) [1.91],3,10,,9,10
